Data published in the supplement of paper PMC11368000.

Key:
Conditions in all cases: exposure time: 90 min
30145 [1] = donor line of iPSC-derived cardiomyocytes; assay: POD (EC10) for decrease in total cell number (cytotoxicity) vs vehicle; higher = less potent (higher point of departure)
Experimental: (§1)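 Human iPSC-derived cardiomyocytes from 16 donors were exposed for 90 min at 37 °C to each PFAS at 0.1, 1, 10 and 100 µM in 0.5% DMSO, 384-well plates. Kinetic Ca2+ flux (FLIPR) and Hoechst nuclei counts were normalised to vehicle wells and fitted with a hierarchical Bayesian Hill model to give donor-specific PODs: EC05 for beat-rate increase or decrease and for decay-to-rise ratio increase (QT proxy), EC95 for peak-frequency loss (asystole), EC10 for total cell number loss. 0.03 µM is the lower bound.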

1392 [2] = donor line of iPSC-derived cardiomyocytes; assay: as above
Experimental: as §1

1516 [3] = donor line of iPSC-derived cardiomyocytes; assay: as above
Experimental: as §1

20084 [4] = donor line of iPSC-derived cardiomyocytes; assay: as above
Experimental: as §1

20032 = donor line of iPSC-derived cardiomyocytes; assay: POD (EC05) for decrease in beat frequency (negative chronotrope) vs vehicle; higher = less potent (higher point of departure)
Experimental: as §1

30145 [5] = assay: as above
Experimental: as §1

1118 = donor line of iPSC-derived cardiomyocytes; assay: as above
Experimental: as §1

1434 = donor line of iPSC-derived cardiomyocytes; assay: as above
Experimental: as §1

1518 = donor line of iPSC-derived cardiomyocytes; assay: as above
Experimental: as §1

1392 [6] = assay: as above
Experimental: as §1

1083 = donor line of iPSC-derived cardiomyocytes; assay: as above
Experimental: as §1

1368 = donor line of iPSC-derived cardiomyocytes; assay: as above
Experimental: as §1

11235 = donor line of iPSC-derived cardiomyocytes; assay: as above
Experimental: as §1

30171 = donor line of iPSC-derived cardiomyocytes; assay: as above
Experimental: as §1

1516 [7] = assay: as above
Experimental: as §1

1535 = donor line of iPSC-derived cardiomyocytes; assay: as above
Experimental: as §1

1565 = donor line of iPSC-derived cardiomyocytes; assay: as above
Experimental: as §1

20084 [8] = assay: as above
Experimental: as §1

1531 = donor line of iPSC-derived cardiomyocytes; assay: as above
Experimental: as §1

1309 = donor line of iPSC-derived cardiomyocytes; assay: as above
Experimental: as §1

Row | SMILES | POD vs vehicle 30145 [1] [µM] | POD vs vehicle 1392 [2] [µM] | POD vs vehicle 1516 [3] [µM] | POD vs vehicle 20084 [4] [µM] | POD vs vehicle 20032 [µM] | POD vs vehicle 30145 [5] [µM] | POD vs vehicle 1118 [µM] | POD vs vehicle 1434 [µM] | POD vs vehicle 1518 [µM] | POD vs vehicle 1392 [6] [µM] | POD vs vehicle 1083 [µM] | POD vs vehicle 1368 [µM] | POD vs vehicle 11235 [µM] | POD vs vehicle 30171 [µM] | POD vs vehicle 1516 [7] [µM] | POD vs vehicle 1535 [µM] | POD vs vehicle 1565 [µM] | POD vs vehicle 20084 [8] [µM] | POD vs vehicle 1531 [µM] | POD vs vehicle 1309 [µM]
1 | O=C(O)C=CC(F)(C(F)(F)F)C(F)(F)F [3-(Perfluoroisopropyl)-2-propenoic_acid] | > 100 | > 100 | > 100 | > 100 | > 100 | > 100 | > 100 | > 100 | > 100 | > 100 | > 100 | > 100 | > 100 | > 100 | > 100 | > 100 | > 100 | > 100 | > 100 | > 100
2 | OCC(F)(F)C(F)(F)C(F)(F)C(F)(F)C(F)(F)C(F)F [Dodecafluoroheptanol] | > 100 | > 100 | > 100 | > 100 | 18.3 | 19.4 | 1.39 | 18.1 | 14.9 | 18 | 15.3 | 13.7 | 19.2 | 20.1 | 18.9 | 18.4 | 20.3 | 19.3 | 15.7 | 19.4
3 | O=S(=O)(O)CCC(F)(F)C(F)(F)C(F)(F)C(F)(F)C(F)(F)C(F)(F)F [6:2 Fluorotelomer sulfonic acid] | > 100 | > 100 | > 100 | > 100 | > 100 | > 100 | 12.8 | > 100 | 42.6 | > 100 | > 100 | > 100 | 6.84 | 24.5 | 33.5 | > 100 | 39.6 | > 100 | 25.1 | > 100
4 | OCCC(F)(F)C(F)(F)C(F)(F)C(F)(F)C(F)(F)C(F)(F)F [6:2 Fluorotelomer alcohol] | > 100 | > 100 | > 100 | > 100 | > 100 | > 100 | 31.5 | > 100 | > 100 | > 100 | 58.7 | > 100 | > 100 | > 100 | > 100 | > 100 | > 100 | > 100 | > 100 | > 100
5 | O=S(=O)(O)C(F)(F)C(F)(F)C(F)(F)C(F)(F)C(F)(F)C(F)(F)F [Perfluorohexanesulfonic_acid] | > 100 | > 100 | > 100 | > 100 | 84.5 | > 100 | 19.6 | 63.6 | > 100 | > 100 | > 100 | > 100 | 26.5 | 46.1 | 17.6 | 43.4 | 81.7 | > 100 | 24.5 | 78.1
6 | O=C(O)C(F)(F)C(F)(F)C(F)(F)C(F)(F)C(F)(F)C(F)(F)C(F)(F)C(F)(F)Cl [9-Chloro-perfluorononanoic_acid] | > 100 | > 100 | 56.2 | > 100 | 44.8 | > 100 | 13.1 | 10.9 | > 100 | > 100 | > 100 | > 100 | 2.23 | 6.24 | 14.9 | 39.9 | > 100 | > 100 | > 100 | 84.3
7 | O=C(O)C(F)(F)OC(F)(F)C(F)(F)OC(F)(F)C(F)(F)OC(F)(F)C(F)(F)C(F)(F)C(F)(F)F [Perfluoro-3,6,9-trioxatridecanoic_acid] | > 100 | > 100 | 55.4 | > 100 | 42 | > 100 | 18.3 | 22.8 | > 100 | > 100 | 21.8 | > 100 | 23.1 | 20.7 | 22.2 | 79.4 | > 100 | 77.9 | 3.38 | > 100
8 | O=C(O)CCC(F)(F)C(F)(F)C(F)(F)F [3:3 Fluorotelomer carboxylic acid] | > 100 | > 100 | > 100 | > 100 | > 100 | > 100 | > 100 | > 100 | > 100 | > 100 | > 100 | > 100 | > 100 | > 100 | > 100 | > 100 | > 100 | > 100 | > 100 | > 100
9 | O=C([O-])C(F)(F)C(F)(F)C(F)(F)C(F)(F)C(F)(F)C(F)(F)C(F)(F)F.[NH4+] [Ammonium_perfluorooctanoate] | > 100 | > 100 | > 100 | > 100 | 79.9 | > 100 | 11 | 46.1 | 87.3 | > 100 | > 100 | > 100 | 4.51 | 7.16 | 58.4 | 43.5 | > 100 | > 100 | 18.9 | > 100
